In EP0028279A1, “Phthalide-isoquinoline derivatives, their preparation and their use in medicaments” (CALAIRE CHIMIE S.A., priority 1979, dated 1981) one finds inhibition, toxicité chronique and LD50 data, which are given here for two compounds.

SMILES strings stand for the structures.

Series [1] deals with T1, histidine décarboxylase de rein de cobaye (Cavia porcellus, UniProt H0WB71).
T1 construct: le pourcentage de réduction de l'activité de l'enzyme du rein des animaux traités; from tissue; host or cells: guinea pig kidney
T1 sequence (H0WB71 1-642): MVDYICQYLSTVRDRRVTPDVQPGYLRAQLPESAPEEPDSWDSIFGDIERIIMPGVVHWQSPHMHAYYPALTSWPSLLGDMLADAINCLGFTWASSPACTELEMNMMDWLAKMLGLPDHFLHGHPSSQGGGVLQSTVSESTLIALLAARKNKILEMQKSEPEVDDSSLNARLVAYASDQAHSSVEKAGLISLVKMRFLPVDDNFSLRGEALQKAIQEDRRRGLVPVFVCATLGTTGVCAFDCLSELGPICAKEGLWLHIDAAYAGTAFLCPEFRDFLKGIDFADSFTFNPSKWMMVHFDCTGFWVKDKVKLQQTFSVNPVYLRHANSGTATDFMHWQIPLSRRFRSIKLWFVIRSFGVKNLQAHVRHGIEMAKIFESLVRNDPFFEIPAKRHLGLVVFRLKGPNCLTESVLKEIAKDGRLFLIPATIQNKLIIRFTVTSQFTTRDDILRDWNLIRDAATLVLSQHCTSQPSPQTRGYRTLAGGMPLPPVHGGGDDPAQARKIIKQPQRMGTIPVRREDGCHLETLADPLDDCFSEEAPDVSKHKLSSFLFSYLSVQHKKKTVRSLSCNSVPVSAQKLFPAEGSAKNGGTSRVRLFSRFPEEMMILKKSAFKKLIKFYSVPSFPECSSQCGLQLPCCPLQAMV
The experiment in a line: Kidney histidine decarboxylase activity after in vivo administration (method of Kosmicki et al.). As to conditions: guinea pigs sacrificed 5 hours after administration, reduction versus controls, read-out: Activité exprimée en % d'inhibition de l'enzyme. An excerpt:
L'activité du composé 458L a été comparée à celle de la tritoqualine qui est à la connaissance des Demandeurs, le seul produit utilisé en thérapeutique pour cette propriété. La technique de mesure de l'activité de l'histidine décarboxylase de rein de cobaye a été décrite par B. Kosmicki et al (J. Pharmacol. Paris 1974 - 5 - 3 - 331 - 342). Les cobayes ont été sacrifiés cinq heures après l'administration des substances étudiées. Il a été déterminé par rapport aux témoins le pourcentage de réduction de l'activité de l'enzyme du rein des animaux traités. Les résultats obtenus sont rapportés dans le tableau ci-dessous : […]

Details of series [2]: species or system souris. As to conditions: in vivo. An excerpt: (§1) La toxicité a été déterminée de manière habituelle.
Series [3] can be described thus: Acute toxicity (LD50), oral, mouse. The conditions noted are these: in vivo, read-out: DL 50 (the source's name).
Description: as §1

With `CCOc1c(N)c2c(c(OCC)c1OCC)C(C1c3c(cc(OC)c(OC)c3OC)CCN1C)OC2=O` (stereo not shown) [458 L], in series [1], the inhibition at 10 mg/kg was found to be 14%, the inhibition at 20 mg/kg is 21%, the inhibition at 40 mg/kg was determined as 31% and the inhibition at 60 mg/kg was found to be 41%. Besides, in series [2], the toxicité chronique entry is “bonne tolérance”. In series [3], the LD50 is approximately 6000 mg/kg.

Turning to `CCOc1c(N)c2c(c(OCC)c1OCC)C(C1c3c(cc4c(c3OC)OCO4)CCN1C)OC2=O` (stereo not shown) [Tritoqualine, tritoqualine, reference compound], in series [1], the inhibition at 10 mg/kg worked out at 10%, the inhibition at 20 mg/kg worked out at 20%, the inhibition at 40 mg/kg is 20% and the inhibition at 60 mg/kg came out at 22%.

One may read the inhibition as the drop in the measured response relative to a control, in per cent.
